Here are results for 1 compound from patent publication US12202827B2, “Aldosterone synthase inhibitor” (DAMIAN PHARMA AG, priority 2016, dated 2025).

For data set [1] the following is noted: literature; cited from earlier work.
Data set [2] can be described thus: Hygroscopicity, open flasks in unconditioned ambient air for 24 hours. The following applies: open flask.
Protocol: 100 mg samples of the two crystalline salts were stored in open flasks for 24 hours side by side at room temperature in unconditioned ambient air and weight measurements occurred at time 0 and after 24 hours (Table 6).
[3] abbreviates: room temperature, unconditioned ambient air.

Consider `Cl.N#Cc1ccc([C@H]2CCCc3cncn32)cc1`, for which the “Hygroscopicity (in words)” value in data set [1] is recorded as “highly hygroscopic”. The “Hygroscopicity (assessment in words)” value in data set [2] (ambient air) was “significant hygroscopicity”. Further, in data set [2] (setting [3]), the Absolute weight is reported as 113.2 mg and the Weight increase was determined as 13.1%. The Weight increase in data set [2] (room temperature, unconditioned ambient air, listed as Chloride Salt) came to 13.1%.
